Assays:
Type in all cases: in vivo, human
[1] = system: adults with mild to severe plaque psoriasis; assay: PSOARING 1 & 2 12-week pivotal phase 3 trials; settings: Week 12
Protocol: All secondary endpoints were met, with statistical significance. […] Here, we present further analyses of the DLQI results, including an evaluation of correlations between the DLQI and clinical efficacy as assessed by PGA and Psoriasis Area and Severity Index (PASI) scores in PSOARING 1 & 2.
The DLQI is a 10-item scale where each item rates impact on quality of life (QoL) on a 4-point scale from 0 (not at all) to 3 (very much); lower scores indicate higher QoL. Efficacy was evaluated using PGA and PASI. Spearman rank correlations were used to evaluate correlations between changes from baseline in efficacy and changes from baseline in QoL at Week 12. Analyses used observed cases and were based on the intention-to-treat population.

[2] = system: adults with plaque psoriasis; assay: Long-term extension study (PSOARING 3): % BSA affected
Protocol: The % BSA affected is an estimate of the percentage of total involved skin with psoriasis. For the purpose of clinical estimation, the total palmar surface of the subject's palm and digits was assumed to be approximately equivalent to 1% BSA. The % BSA affected by psoriasis was evaluated (from 0% to 100%). Details on calculation of approximate % BSA involvement in each subject (total and individual) can be found in Appendix 2 of the protocol. Percent BSA is a static assessment made without reference to previous scores.
At Screening, Baseline, and for all efficacy assessments, lesions on the subject's scalp, palms, fingernails, toenails, and soles were not included in the calculation of % BSA affected as these areas were excluded from the efficacy analyses.

[3] = system: adults with plaque psoriasis; assay: Long-term extension study (PSOARING 3): Dermatology Life Quality Index (DLQI); design: key to DLQI Total Score, Observed, Mean / DLQI Total Score, Observed, Median: DLQI total score 0–30; higher = greater quality-of-life impairment
Excerpt: Subjects completed the DLQI questionnaire. The DLQI is a simple, validated, dermatology specific, 10 question questionnaire to assess the impact of the disease on a subject's quality of life. The DLQI is an important outcome measure in dermatology clinical trials and is the most frequently used instrument in randomized, controlled dermatology trials. The DLQI can be analyzed as a total score (where a higher score indicates greater impairment in quality of life) and can also be scored for the following dimensions: Symptoms and Feelings (Items 1 and 2), Daily Activities (Items 3 and 4), Leisure (Items 5 and 6), Work and School (Item 7), Personal Relationships (Items 8 and 9), and Treatment (Item 10).
The DLQI is a 10 item subject reported outcome, 6 domain measure that assessed the extent to which the skin condition had affected the subject's quality of life over the past week. The total score (0 to 30) is the sum of 10 questions with each ranging from 0 to 3. The DLQI was assessed at 4 week intervals. If one question was left unanswered, this was scored as 0 and the scores were summed and expressed as usual out of a maximum of 30. If ≥2 questions were left unanswered, the total DLQI score was considered missing.
DLQI total score and sub scores on DLQI domains and their changes from baseline as well as percent change from baseline values were summarized descriptively. Additional details of the analysis of the DLQI are provided in the SAP.

[4] = Week 16, OC, Tapinarof (Pivotal) group
[5] = Week 16, OC, Vehicle (Pivotal) group
[6] = Week 40, OC, Tapinarof (Pivotal) group
[7] = Week 40, OC, Vehicle (Pivotal) group
[8] = Week 16 OC, Tapinarof (Pivotal)
[9] = Week 40 OC, Tapinarof (Pivotal)

CC(C)c1c(O)cc(/C=C/c2ccccc2)cc1O [Tapinarof, 3,5-Dihydroxy-4-isopropyl-trans-stilbene]
PGA response (PGA 0 or 1 and ≥2-grade improvement from baseline) ([1]; PSOARING 1): 35.4% | mean change in DLQI from baseline ([1]; PSOARING 1): ~5.0 | patients who achieved a DLQI of 0 or 1 ([1]; PSOARING 1): 47.4% | PGA response (PGA 0 or 1 and ≥2-grade improvement from baseline) ([1]; PSOARING 2): 40.2% | mean change in DLQI from baseline ([1]; PSOARING 2): ~4.7 | patients who achieved a DLQI of 0 or 1 ([1]; PSOARING 2): 44.9% | mean % BSA affected ([2]; Week 16, LOCF, Tapinarof (Pivotal) group): 2.54% | mean % BSA affected ([2]; Week 16, LOCF, Vehicle (Pivotal) group): 3.36% | mean % BSA affected [2, 4]: 1.97% | mean % BSA affected [2, 5]: 2.89% | mean % BSA affected ([2]; Week 16 LOCF, Overall): 2.82% | mean % BSA affected ([2]; Week 16 OC, Overall): 2.28% | mean % BSA affected ([2]; Week 40, LOCF, Tapinarof (Pivotal) group): 2.44% | mean % BSA affected ([2]; Week 40, LOCF, Vehicle (Pivotal) group): 2.99% | mean % BSA affected [2, 6]: 1.75% | mean % BSA affected [2, 7]: 2.07% | mean % BSA affected ([2]; Week 40 LOCF, Overall): 2.63% | mean % BSA affected ([2]; Week 40 OC, Overall): 1.85% | DLQI Total Score, Observed, Mean ([3]; Baseline, Overall): 4.3 | DLQI Total Score, Observed, Median ([3]; Baseline, Overall): 2.0 | DLQI Total Score, Observed, Mean ([3]; Baseline, Tapinarof (Pivotal)): 3.3 | DLQI Total Score, Observed, Median ([3]; Baseline, Tapinarof (Pivotal)): 2.0 | mean (SD) DLQI total score [3, 4]: 2.0 (3.23) | mean (SD) DLQI total score [3, 5]: 3.0 (5.19) | DLQI Total Score, CFBL, Mean ([3]; Week 16 OC, Overall): −1.7 | DLQI Total Score, CFBL, Median ([3]; Week 16 OC, Overall): −1.0 | DLQI Total Score, Observed, Mean ([3]; Week 16 OC, Overall): 2.3 | DLQI Total Score, Observed, Median ([3]; Week 16 OC, Overall): 1.0 | DLQI Total Score, Percent CFBL, Mean ([3]; Week 16 OC, Overall): −30.7% | DLQI Total Score, Percent CFBL, Median ([3]; Week 16 OC, Overall): −60.0% | mean (SD) DLQI total score ([3]; Week 16 OC, Overall): 2.3 (4.02) | DLQI Total Score, CFBL, Mean [3, 8]: −1.0 | DLQI Total Score, CFBL, Median [3, 8]: 0.0 | DLQI Total Score, Observed, Mean [3, 8]: 2.0 | DLQI Total Score, Observed, Median [3, 8]: 1.0 | DLQI Total Score, Percent CFBL, Mean [3, 8]: −21.3% | DLQI Total Score, Percent CFBL, Median [3, 8]: −50.0% | DLQI Total Score, CFBL, Mean ([3]; Week 16 OC, Vehicle (Pivotal)): −3.1 | DLQI Total Score, CFBL, Median ([3]; Week 16 OC, Vehicle (Pivotal)): −3.0 | DLQI Total Score, Observed, Mean ([3]; Week 16 OC, Vehicle (Pivotal)): 3.0 | DLQI Total Score, Observed, Median ([3]; Week 16 OC, Vehicle (Pivotal)): 1.0 | DLQI Total Score, Percent CFBL, Mean ([3]; Week 16 OC, Vehicle (Pivotal)): −45.9% | DLQI Total Score, Percent CFBL, Median ([3]; Week 16 OC, Vehicle (Pivotal)): −73.0% | mean (SD) DLQI total score [3, 6]: 1.6 (2.36) | mean (SD) DLQI total score [3, 7]: 2.0 (4.23) | DLQI Total Score, CFBL, Mean ([3]; Week 40 OC, Overall): −2.0 | DLQI Total Score, CFBL, Median ([3]; Week 40 OC, Overall): −1.0 | DLQI Total Score, Observed, Mean ([3]; Week 40 OC, Overall): 1.7 | DLQI Total Score, Observed, Median ([3]; Week 40 OC, Overall): 1.0 | DLQI Total Score, Percent CFBL, Mean ([3]; Week 40 OC, Overall): −41.6% | DLQI Total Score, Percent CFBL, Median ([3]; Week 40 OC, Overall): −72.1% | DLQI Total Score, CFBL, Mean [3, 9]: −1.1 | DLQI Total Score, CFBL, Median [3, 9]: 0.0 | DLQI Total Score, Observed, Mean [3, 9]: 1.6 | DLQI Total Score, Observed, Median [3, 9]: 1.0 | DLQI Total Score, Percent CFBL, Mean [3, 9]: −25.0% | DLQI Total Score, Percent CFBL, Median [3, 9]: −61.3% | DLQI Total Score, CFBL, Mean ([3]; Week 40 OC, Vehicle (Pivotal)): −3.9 | DLQI Total Score, CFBL, Median ([3]; Week 40 OC, Vehicle (Pivotal)): −3.0 | DLQI Total Score, Observed, Mean ([3]; Week 40 OC, Vehicle (Pivotal)): 2.0 | DLQI Total Score, Observed, Median ([3]; Week 40 OC, Vehicle (Pivotal)): 0.0 | DLQI Total Score, Percent CFBL, Mean ([3]; Week 40 OC, Vehicle (Pivotal)): −69.2% | DLQI Total Score, Percent CFBL, Median ([3]; Week 40 OC, Vehicle (Pivotal)): −88.9%

Source: patent US20220395472A1 (Dermavant Sciences GmbH, priority 2021, published 2022)
